This is an account of results in ChEMBL document CHEMBL1151450, “Differential activities of newer antifungal agents against Candida albicans and Candida parapsilosis biofilms” (2008).

Assay [1] has as its system Candida albicans. Nature of the assay: Antifungal activity against Candida albicans GDH2346 grown as biofilm assessed as 50% reduction in metabolic activity of biofilm after 24 hrs by XTT assay. The assay is classed as functional. To be noted: GDH2346, 24 h. For orientation: Formazan colour is commonly taken as a measure of viable cells.
Assay [2] has as its system Candida parapsilosis. As to the kind of experiment: Antifungal activity against Candida parapsilosis PA/71 grown as planktonic cell assessed as minimum drug level required to decrease turbidity by 50% after 24 hrs by CLSI M27-A2 method. Format: functional. To be noted: Lodderomyces parapsilosis, PA/71, 24 h.
For assay [3], the system named is Candida albicans. Nature of the assay: Antifungal activity against Candida albicans GDH2346 grown as planktonic cell assessed as minimum drug level required to decrease turbidity by 50% after 24 hrs by CLSI M27-A2 method. The assay is classed as functional. To be noted: GDH2346, 24 h.
For assay [4], the system named is Candida albicans. Nature of the assay: Antifungal activity against Candida albicans GDH2346 grown as biofilm assessed as maximum inhibition of biofilm metabolic activity at 8 mg/liter after 24 hrs by XTT assay relative to control. Conditions: GDH2346, 24 h. Format: functional.
The subject of assay [5] is Candida albicans. Nature of the assay: Antifungal activity against Candida albicans M61 grown as biofilm assessed as 50% reduction in metabolic activity of biofilm after 24 hrs by XTT assay. The assay is classed as functional. Conditions: M61, 24 h.
Assay [6] has as its system Candida albicans. As to the kind of experiment: Antifungal activity against Candida albicans M61 grown as planktonic cell assessed as minimum drug level required to decrease turbidity by 50% after 24 hrs by CLSI M27-A2 method. Format: functional. To be noted: M61, 24 h.
Assay [7] relates to Candida parapsilosis. Nature of the assay: Antifungal activity against Candida parapsilosis PA/71 grown as biofilm assessed as 50% reduction in metabolic activity of biofilm after 24 hrs by XTT assay. To be noted: Lodderomyces parapsilosis, PA/71, 24 h. The assay is classed as functional.
Assay [8] deals with Candida albicans. Nature of the assay: Antifungal activity against Candida albicans M61 grown as biofilm assessed as maximum inhibition of biofilm metabolic activity at 0.5 mg/liter after 24 hrs by XTT assay relative to control. The assay is classed as functional. Conditions: M61, 24 h.
For assay [9], the system named is Candida albicans. As to the kind of experiment: Antifungal activity against Candida albicans M61 grown as biofilm assessed as 50% reduction in metabolic activity of biofilm at 0.06 mg/liter after 24 hrs by XTT assay. Format: functional, organism-based.
Assay [10] concerns Candida parapsilosis. Nature of the assay: Antifungal activity against Candida parapsilosis PA/71 grown as biofilm >2 mg/liter after 24 hrs by XTT assay. The assay is classed as functional, organism-based.
In assay [11] the test system is Candida albicans. Nature of the assay: Antifungal activity against Candida albicans M61 grown as biofilm at >2 mg/liter after 24 hrs by XTT assay. Format: functional, organism-based.
The subject of assay [12] is Candida albicans. Nature of the assay: Antifungal activity against Candida albicans GDH2346 grown as biofilm assessed as 50% reduction in metabolic activity of biofilm at 0.03 mg/liter after 24 hrs by XTT assay. Format: functional, organism-based.
The test system of assay [13] is Candida albicans. Nature of the assay: Antifungal activity against Candida albicans GDH2346 grown as biofilm assessed as maximum inhibition of biofilm metabolic activity at 2 mg/liter after 24 hrs by XTT assay relative to control. Format: functional. To be noted: GDH2346, 24 h.
Assay [14] relates to Candida albicans. As to the kind of experiment: Antifungal activity against Candida albicans M61 grown as biofilm assessed as maximum inhibition of biofilm metabolic activity at 2 mg/liter after 24 hrs by XTT assay relative to control. The assay is classed as functional. Conditions: M61, 24 h.
Assay [15] has as its system Candida albicans. As to the kind of experiment: Antifungal activity against Candida albicans GDH2346 grown as biofilm >2 mg/liter after 24 hrs by XTT assay. The assay is classed as functional, organism-based.
For assay [16], the system named is Candida albicans. As to the kind of experiment: Antifungal activity against Candida albicans GDH2346 grown as biofilm assessed as 50% reduction in metabolic activity of biofilm at 64 mg/liter after 24 hrs by XTT assay. The assay is classed as functional, organism-based.
Assay [17] deals with Candida parapsilosis. As to the kind of experiment: Antifungal activity against Candida parapsilosis PA/71 grown as biofilm assessed as 50% reduction in metabolic activity of biofilm at 64 mg/liter after 24 hrs by XTT assay. The assay is classed as functional, organism-based.
For assay [18], the system named is Candida albicans. As to the kind of experiment: Antifungal activity against Candida albicans M61 grown as biofilm assessed as 50% reduction in metabolic activity of biofilm at 64 mg/liter after 24 hrs by XTT assay. The assay is classed as functional, organism-based.
The subject of assay [19] is Candida albicans. Nature of the assay: Antifungal activity against Candida albicans GDH2346 grown as biofilm assessed as 50% reduction in metabolic activity of biofilm at 256 mg/liter after 24 hrs by XTT assay. The assay is classed as functional, organism-based.
The subject of assay [20] is Candida albicans. Nature of the assay: Antifungal activity against Candida albicans M61 grown as biofilm assessed as 50% reduction in metabolic activity of biofilm at 256 mg/liter after 24 hrs by XTT assay. The assay is classed as functional, organism-based.
The subject of assay [21] is Candida parapsilosis. As to the kind of experiment: Antifungal activity against Candida parapsilosis PA/71 grown as biofilm assessed as 50% reduction in metabolic activity of biofilm at 256 mg/liter after 24 hrs by XTT assay. The assay is classed as functional, organism-based.

Converted amounts (≈) assume the structure as drawn. The source made the active and inactive calls. The calls are words filed in the database; no cut-off is given here. *1 amine or outer side, *2 acyl side, *3 side chain or, on linkers, in order; H or OH if unused. Where a SMILES comes first, the peptide text is derived from it. Bridges are numbered along the chain shown (N, C = ends). [ ]: non-standard residue; d: D form. The star is where a group is joined. pTerphenylCO(4''-OnC5H11) = CCCCCOc1ccc(-c2ccc(-c3ccc(C(=O)*)cc3)cc2)cc1; Orn(4R-OH,5R-OH) = O=C([C@H](C[C@@H](O)[C@@H](O)N[*:3])N[*:1])[*:2]; hTyr(3S-OH,4S-OH) = N[C@H](C(=O)O)[C@H](O)[C@@H](O)c1ccc(O)cc1; Pro(3S-OH,4S-Me) = C[C@H]1CN[C@H](C(=O)O)[C@H]1O; Hyp = O=C(O)[C@@H]1C[C@@H](O)CN1

In the case of `CCCCCOc1ccc(-c2ccc(-c3ccc(C(=O)N[C@H]4C[C@@H](O)[C@@H](O)NC(=O)[C@@H]5[C@@H](O)[C@@H](C)CN5C(=O)[C@H]([C@@H](C)O)NC(=O)[C@H]([C@H](O)[C@@H](O)c5ccc(O)cc5)NC(=O)[C@@H]5C[C@@H](O)CN5C(=O)[C@H]([C@@H](C)O)NC4=O)cc3)cc2)cc1` [ANIDULAFUNGIN] ({pTerphenylCO(4''-OnC5H11)}-[Orn(4R-OH,5R-OH)]T[Hyp][hTyr(3S-OH,4S-OH)]T[Pro(3S-OH,4S-Me)]; lactam 1-C), the MIC in assay [1] was found to be 0.12 µg/mL (≈ 0.105 µM); in [2], 0.125 µg/mL (≈ 0.11 µM); in assay [3] it was 0.003 µg/mL (≈ 0.00263 µM); in assay [5], 0.5 µg/mL (≈ 0.438 µM); in [6], 0.003 µg/mL (≈ 0.00263 µM); in [7] it was 2 µg/mL (≈ 1.75 µM). In assay [4], the inhibition at 8 µg/mL is 40%. Besides, the inhibition at 0.5 µg/mL in assay [8] was determined as 40%.
Turning to `CC[C@H](C)C[C@H](C)CCCCCCCCC(=O)N[C@H]1C[C@@H](O)[C@@H](NCCN)NC(=O)[C@@H]2[C@@H](O)CCN2C(=O)[C@H]([C@H](O)CCN)NC(=O)[C@H]([C@H](O)[C@@H](O)c2ccc(O)cc2)NC(=O)[C@@H]2C[C@@H](O)CN2C(=O)[C@H]([C@@H](C)O)NC1=O` [CASPOFUNGIN], the result in assay [9], in assay [10], in assay [11], in [12] and in [15] was Active. Besides, the MIC in assay [2] came to 0.06 µg/mL (≈ 0.0549 µM); in assay [3], 0.03 µg/mL (≈ 0.0274 µM); in [6], 0.06 µg/mL (≈ 0.0549 µM); in assay [7], 1 µg/mL (≈ 0.915 µM). In addition, the inhibition at 2 µg/mL in [13] and in assay [14] was 30% throughout.
As for `CC[C@@H]([C@H](C)O)n1ncn(-c2ccc(N3CCN(c4ccc(OC[C@@H]5CO[C@@](Cn6cncn6)(c6ccc(F)cc6F)C5)cc4)CC3)cc2)c1=O` [POSACONAZOLE], the MIC is 0.01 µg/mL (≈ 0.0143 µM) in assay [2], no more than 0.001 µg/mL in assay [3], no more than 0.001 µg/mL in assay [6] and greater than 256 µg/mL in [7]. Also, the outcome in [16], in assay [17] and in [18] was inactive.
As to `C[C@@H](c1ncncc1F)[C@](O)(Cn1cncn1)c1ccc(F)cc1F` [VORICONAZOLE], the MIC is 0.03 µg/mL (≈ 0.0859 µM) in assay [2], 4 µg/mL (≈ 11.5 µM) in assay [3], 0.01 µg/mL (≈ 0.0286 µM) in assay [6] and 256 µg/mL (≈ 733 µM) in [7]. Moreover, the result in assay [19], in [20] and in assay [21] was inactive.

Usually inhibition stands for the relative decrease from the control value, in per cent.
